Source: PMC8870237, “Improved Multimodal Tumor Necrosis Imaging with IRDye800CW-DOTA Conjugated to an Albumin-Binding Domain” (Cancers, 2022)
“Also recorded” adds a separate entry of the source.

Tests used:
[1] = In vitro protein binding in mouse serum (ultrafiltration); type: in vitro ADME; details: 37 °C, 30 min, indium-111 labeled material
Description: Protein binding of the NACAs was determined as reported elsewhere. The NACAs were labeled with indium-111 (50 MBq/nmol), added to mouse serum (1 MBq/500 µL), and incubated at 37 °C for 30 min. Four portions of 10 µL were taken and counted on a γ-counter. The remaining serum was transferred to a centifree ultrafiltration device (4104 centrifugal filter units; Millipore, 30 kDa nominal molecular weight limit, methylcellulose micro partition membranes equilibrated once with 5% v/v Tween-80 in phosphate-buffered saline (PBS) and then trice with PBS) and centrifuged at 7.0 × 1000 g for 40 min at room temperature. Four portions of 10 µL from the filtrates were counted for radioactivity in a γ-counter. The amount of plasma-bound radioligand was calculated as the fraction between the radioactivity measured in the filtrate portions relative to the corresponding loading solution (set to 100%).

4T1-Luc2 tumors = tested on: 4T1-Luc2 tumors; design: method as in PMID 32514888; details: comparison value; cited from earlier work
MCF7-Luc2 tumors = test: Tumor uptake in doxorubicin- or saline-treated MCF7-Luc2 tumor-bearing mice; type: in vivo, mouse; details: 1 h p.i., ±SEM
Description: (§1) The quadruple modality imaging procedure is illustrated in Figure S21. The tumor-bearing mice were injected with [^111In]3 (20 MBq, 2 nmol) in 200 µL PBS into the tail vein. The following day, the mice fasted for four hours before they were injected with [^18F]FDG (10 MBq, 200 µL) in PBS. At 24 h p.i. of [^111In]3 and 1 h p.i. of [^18F]FDG, FLI imaging was performed with a 730 nm excitation and 760 nm emission filter for 400 ms with 4 × 4 binning. Then, the mice received an intraperitoneal injection of D-luciferin (150 mg/kg) maintaining the position of the mice in the bed unaltered. During the onset of the bioluminescence signal, PET/SPECT imaging was performed of the tumors with a 2 cm axial field of view over a total scan time of 30 min, followed by a 2 min full-body CT. Finally, BLI imaging was performed with an open filter for 400 ms with 4 × 4 binning. Imaging was performed under isoflurane anesthesia whilst maintaining the body temperature constant.
Six mice were inoculated bilaterally with MCF7-Luc2 cells (3.0 × 10^6), suspended in 30 µL PBS:Matrigel (1:1; v/v). On days 14, 16, and 18 after inoculation, the tumor-bearing mice received either doxorubicin (5 mg/kg, Janssen Pharmaceuticals, Beerse, Belgium) or a saline solution via i.v. injection. On days 21 and 22 after inoculation, the mice underwent the FLI, BLI, and PET/SPECT/CT imaging procedure (vide supra).
After the final imaging experiments, the mice were sacrificed by cervical dislocation, tumors and organs were collected, weighted, and activity was accurately quantified by γ-counting to determine radioactivity uptake in the percentage of injected dose per gram (%ID/g). After γ-counting, the tumors were frozen in liquid nitrogen and stored at −80 °C overnight. Adjacent cryosections (10 µm) were prepared of the tumor centers for autoradiography. The sections were stored at −20 °C for the radioactivity to decay, before 800 nm fluorescence imaging and histochemical dead cell staining.

EMT6-Luc2 tumors = test: Tumor uptake in EMT6-Luc2 tumor-bearing mice; type: in vivo, mouse; details: untreated, 1 h p.i., ±SEM
Description: as §1, with “constant. […]” for “constant.”
After the final imaging experiments, the mice were sacrificed by cervical dislocation, tumors and organs were collected, weighted, and activity was accurately quantified by γ-counting to determine radioactivity uptake in the percentage of injected dose per gram (%ID/g). […] The sections were stored at −20 °C for the radioactivity to decay, before 800 nm fluorescence imaging and histochemical dead cell staining.

[2] = n-octanol/PBS distribution coefficient (LogD7.4); type: physicochemical; details: LogD7.4, indium-111 labeled material, triplicates
Description: The [^111In]1, [^111In]2, and [^111In]3 were labeled at a molar activity of 10 MBq/nmol and 100 kBq was added to n-octanol (500 µL) and PBS (500 µL). After vigorous vortexing, the vial was centrifuged at 16.1 × 1000 g for 3 min. The octanol phase was carefully pipetted into a new vial and both layers were centrifuged again. From both the organic and the aqueous layers, samples (10 µL) were taken out and counted for activity on a γ-counter. LogD values were calculated as follows: Log ([NACA]n-octanol/[NACA]PBS). These experiments were performed as triplicates.

4T1-Luc2 cells [3] = test: In vitro dead/alive cell binding assay (fluorescence and γ-counting); type: cell-based, mouse; details: 100 nM, EtOH-killed or alive 4T1-Luc2 cells; for dead/alive cell binding, fluorescence signal: non-radioactive precursors, 30 min, 37 °C, 800 nm; for dead/alive cell binding, radioactivity: indium-111 labeled, 2.5 MBq/nmol, γ-counting
Description: The 4T1-Luc2 cells were cultured in RPMI-1640 medium containing 10% fetal bovine, penicillin (100 U/mL), and streptomycin ([…]) 37 °C under a humidified atmosphere with 5% CO2. The cells were seeded in 24 well plates (1 × 10^5 cells per well). The next day, the cells were killed with EtOH (70%, 50 μL) or kept alive and incubated for 30 min at 37 °C with 100 nM of the NACAs in culturing medium. The plate was then imaged on an Odyssey (Li-Cor, 800 nm laser intensity 5.0).
Similarly, these killed and alive cells were incubated with the indium-111 labeled NACAs (100 nM, 2.5 MBq/nmol) in culturing medium. The cells were washed with PBS and collected with NaOH (1.0 M) for γ-counting. These experiments were performed as triplicates.

4T1-Luc2 cells [4] = test: Fluorescence microscopy of dead and alive cells; type: cell-based, mouse; details: unlabeled, 100 nM, 30 min, 37 °C
Description: The 4T1-Luc2 cells were seeded on 10 mm diameter coverslips in 24 well plates (10^5 cells per well). The cells were kept alive or killed with 50 µL EtOH (70%) and incubated in culturing medium with or without unlabeled 3 (100 nM) for 30 min at 37 °C. The cells were gently washed with PBS three times and incubated with Calcein-AM (CAM, 2 µM) and propidium iodide (PI, 4 µM) in PBS for 30 min at 37 °C [24]. Then, the cells were fixated with PFA (4% in PBS, 10 min, RT) and nuclei were stained with DAPI (Sigma-Aldrich, 1:1000 in PBS, 5 min). After final washing with PBS, the coverslips were removed from the well plate and mounted on a microscope slide for fluorescence microscope imaging at 20× magnification.

[5] = In vivo stability (radio-HPLC of urine 1 h after injection); design: species or system mouse; details: mice, i.v., 1 h p.i.
Text: After an hour, the mice were sacrificed by cervical dislocation and blood and urine were collected, which were frozen in liquid nitrogen directly after extraction. […] The supernatant was collected and analyzed by radio-HPLC (Method-D).

SMILES | Protein Binding [1] | LogD [2] | dead/alive cell binding, fluorescence signal (4T1-Luc2 cells [3]) | also measured
CC1(C)C(=CC=C2CCCC(C=CC3=[N+](CCCCCC(=O)NCCOCCOCCOCCOCCNC(=O)CN4CCN(CC(=O)[O-])CCN(CC(=O)[O-])CCN(CC(=O)[O-])CC4)c4ccc(S(=O)(=O)O)cc4C3(C)C)=C2Oc2ccc(S(=O)(=O)O)cc2)N(CCCCS(=O)(=O)O)c2ccc(S(=O)(=O)O)cc21.[111In+3] [[^111In]1, [^111In]In-DOTA-PEG4-IRDye800CW] | 70% | – | – | radioactive tumor uptake in the SPECT images (4T1-Luc2 tumors): 0.26 ± 0.05 %ID/mL
OC[C@H]1OC(O)[C@H]([18F])[C@@H](O)[C@@H]1O (stereo partly drawn) [[^18F]FDG, reference compound] | – | – | – | tumor uptake of [18F]FDG (MCF7-Luc2 tumors; after doxorubicin treatment (5 mg/kg i.v., 3 injections)): 1.79 ± 0.11 %ID/g; tumor uptake of [18F]FDG (MCF7-Luc2 tumors; after saline treatment (control)): 3.02 ± 0.51 %ID/g; tumor uptake of [18F]FDG (EMT6-Luc2 tumors): 4.13 ± 0.58 %ID/g
CC1(C)C(/C=C/C2=C(Oc3ccc(S(=O)(=O)O)cc3)C(=C/C=C3\N(CCCCS(=O)(=O)O)c4ccc(S(=O)(=O)O)cc4C3(C)C)/CCC2)=[N+](CCCCCC(=O)NCCCC[C@@H](NC(=O)CCCc2ccc(I)cc2)C(=O)NCc2ccc(CNC(=O)CN3CCN(CC(=O)O)CCN(CC(=O)O)CCN(CC(=O)O)CC3)cc2)c2ccc(S(=O)(=O)O)cc21 [Compound 3] | 94 ± 0.2% | −2.73 ± 0.14 | considerably stronger binding to the dead cells than compound 1 | NIR-fluorescence binding to dead and alive cells (microscopy) (4T1-Luc2 cells [4]): distinct NIR-fluorescent signal was observed from dead cells; also recorded: binds to dead cells and not to alive cells
NCCCC[C@H](NC(=O)CCCc1ccc(I)cc1)C(=O)NCc1ccc(CNC(=O)CN2CCN(CC(=O)[O-])CCN(CC(=O)[O-])CCN(CC(=O)[O-])CC2)cc1.[111In+3] [[^111In]8] | – | – | – | dead/alive cell binding, radioactivity (4T1-Luc2 cells [3]): did not show considerable dead cell binding
CC1(C)C(=CC=C2CCCC(C=CC3=[N+](CCCCCC(=O)NCCCC[C@H](NC(=O)[C@H](CCCCNC(=O)CCCc4ccc(I)cc4)NC(=O)CN4CCN(CC(=O)[O-])CCN(CC(=O)[O-])CCN(CC(=O)[O-])CC4)C(N)=O)c4ccc(S(=O)(=O)O)cc4C3(C)C)=C2Oc2ccc(S(=O)(=O)O)cc2)N(CCCCS(=O)(=O)O)c2ccc(S(=O)(=O)O)cc21.[111In+3] [[^111In]2] | – | – | – | in vivo stability [5]: decomposed after an hour; dead/alive cell binding, radioactivity (4T1-Luc2 cells [3]): increased as compared to [^111In]1
CC1(C)C(=CC=C2CCCC(C=CC3=[N+](CCCCCC(=O)NCCCCC(NC(=O)C(CCCCNC(=O)CCCc4ccc(I)cc4)NC(=O)CN4CCN(CC(=O)O)CCN(CC(=O)O)CCN(CC(=O)O)CC4)C(N)=O)c4ccc(S(=O)(=O)O)cc4C3(C)C)=C2Oc2ccc(S(=O)(=O)O)cc2)N(CCCCS(=O)(=O)O)c2ccc(S(=O)(=O)O)cc21 (stereo not drawn) [Compound 2] | 95 ± 0.1% | −2.47 ± 0.01 | considerably stronger binding to the dead cells than compound 1 | –
CC1(C)C(=CC=C2CCCC(C=CC3=[N+](CCCCCC(=O)NCCOCCOCCOCCOCCNC(=O)CN4CCN(CC(=O)O)CCN(CC(=O)O)CCN(CC(=O)O)CC4)c4ccc(S(=O)(=O)O)cc4C3(C)C)=C2Oc2ccc(S(=O)(=O)O)cc2)N(CCCCS(=O)(=O)O)c2ccc(S(=O)(=O)O)cc21 [Compound 1] | 70 ± 0.9% | −3.58 ± 0.07 | specifically bound to dead cells and not to live cells | –
